Measured values from patent US20180028516A1, “METHODS AND DEVICES FOR THE TREATMENT OF OCULAR DISEASES IN HUMAN SUBJECTS” (CLEARSIDE BIOMEDICAL, INC., priority 2012, published 2018).
Entries after “also recorded” stand apart in the source; their conditions may differ.

Tests used:
[1] = Scotopic electroretinography after SCS TA (Example 9); assay type: in vivo, New Zealand White rabbit; settings: for Scotopic OdB wave A, Amplitude, Mean / Scotopic OdB wave A, Time, Mean / Scotopic OdB wave B, Amplitude, Mean / Scotopic OdB wave B, Time, Mean: right & left eye
Protocol: (§1) In this study, the ocular tolerability and toxicokinetics of suprachoroidal administration of triamcinolone acetonide (TA) using a microneedle in a GLP study in the New Zealand White rabbit.
(§2) On Day 0, New Zealand White (NZW) rabbits were administered a single bilateral supraehoroidal injection of vehicle, 3.2 mg (80 μL) or 5.2 mg (130 μL) of TA (Triesence®, Alcoa labs) using a 33 g 750 μm microneedle. Clinical observations, slit lamp biomicroscopy with McDonald-Shadduck scoring, intraocular pressure assessment (IOP), electroretinography (ERG), and systemic exposure were assessed up to 26 weeks post-dose. Animals were sacrificed on Day 1, Week 13, and Week 26 for macroscopic observations, ocular toxicokinetics, and ocular histopathology.

[2] = system: LPS-induced acute posterior uveitis; experiment: Ocular histopathology and histologic inflammatory scores in porcine uveitis study (Example 13); assay type: in vivo
Protocol: Pigs were euthanized on study day 3 after clinical scoring, OCT, ERG, and wide-field ocular fundus photography was completed. After euthanasia with an overdose of intravenous barbiturate, both eyes were removed, Aqueous humor (All) was aspirated and a 1 mL sample of vitreous humor (VH) was collected from each eye immediately after euthanasia. The globe was then fixed in Davidson's solution for 24 hours, followed by alcohol. Central, saggital sections of each globe, including the optic nerve, were stained with hematoxylin and eosin and examined by light microscopy. Two pathology-trained observers, masked to the study groups, graded degree of inflammatory infiltrate of the ocular anterior and posterior segments. The grading scale for the anterior and posterior ocular segment used was as follows: 0=no evidence of cellular infiltrate; 1=a few cells infiltrated (mild)−focal; 2=a few cells infiltrated (mild)−diffuse; 3=moderate number of cells infiltrated; and 4=high amount of cellular infiltrate.
Differences were considered significant at P<0.05.

[3] = system: model of acute posterior uveitis; experiment: Porcine model of acute posterior uveitis, Hackett/McDonald scoring (Example 12); assay type: in vivo, pigs
Protocol: In this study, the effects of microneedle injection of triamcinolone acetonide (TA) into the suprachoroidal space (SCS) were compared to the effects of intravitreal (IVT) TA injection in a model of acute posterior uveitis.
Ten weanling pigs had IVT injection with BSS or lipopolysaccharide (LPS) followed 24 hours later with an injection of 0.2 mg or 2.0 mg of TA into the SCS or by IVT. The SCS was accessed using hollow microneedles provided herein. A measurement of each eye under the Hackett/McDonald scoring system was performed on −1, 0, and 3 days after treatment. Pigs were then euthanized, aqueous and vitreous humor collected for cell counts and protein levels, and the eyes were processed for histopathology.

[4] = Intraocular pressure and tolerability in porcine uveitis study (Example 13); assay type: in vivo, domestic weanling pigs
Protocol: Intraocular pressure (IOP) was measured at −6, −4, −1, 0, 1, 2, and 3 days using a TonoVet Tonometer (Care, Finland). In addition, IOP was measured 1, 3, and 6 hours after SCS or IVT injections on Day 0. The measurements were collected without use of topical anesthetic, per manufacturer recommendation. Conditioning of the pigs during acclimation permitted routine ocular examinations and IOP measurements to he done with minimal manual restraint. The tip of the tonometer probe was directed to contact the central cornea and 6 measurements were made consecutively. After the six measurements, the mean IOP was shown on the display providing the IOP that was recorded.

[5] = Safety endpoints (mortality, body weights, ocular observations, IOP) in the rabbit uveitis study (Example 11); assay type: in vivo, New Zealand White rabbits
Protocol: In this study, the effects of pretreatment with suprachoroidal or intravitreal triamcinolone acetonide (TA) in a subretinal endotoxin-induced model of posterior segment uveitis in New Zealand White rabbits was evaluated.
On Day 1, female rabbits (4 eyes/group) received a single unilateral injection of vehicle or 4 mg TA (Triesence®, 40 mg/mL suspension, Alcon Labs) into the suprachoroidal space (SCS) using a 33 g 750 μm microneedle, or a 4 mg TA IVT injection using a standard 30 g needle. On Day 6, each animal received a single unilateral subretinal injection of lipopolysaccharide (LPS, 20-30 μL, 203 μg/g of 1% sodium hylauronate) to induce ocular inflammation in the treated eye. Animals were monitored for 22 days following dose administration. Endpoints included body weights, ocular observations, slit lamp biomicroscopy with McDonald-Shadduck scoring and photography, indirect ophthalmoscopy, fundus photography, intraocular pressure (IOP), and histopathology. A summary of the study design is shown below, in Table 6.

[6] = Ophthalmic examinations (slit lamp, fundus) and clinical observations after SCS TA (Example 9); assay type: in vivo, New Zealand White rabbit
Protocol: as §1, §2

[7] = Group 3: LPS intravitreal/low dose (0.2 mg) TA SCS
[8] = Group 4: LPS intravitreal/high dose (2.0 mg) TA SCS
[9] = Group 5: LPS intravitreal/low dose (0.2 mg) TA IVT
[10] = Group 6 (printed: LPS intravitreal/high dose TA SCS)
[11] = 3.2 mg TA/eye SCS, F, 13 weeks post administration
[12] = 5.2 mg TA/eye SCS, F, 13 weeks post administration
[13] = 5.2 mg TA/eye SCS, M, 13 weeks post administration

In the case of CC1(C)O[C@@H]2C[C@H]3[C@@H]4CCC5=CC(=O)C=C[C@]5(C)[C@@]4(F)[C@@H](O)C[C@]3(C)[C@]2(C(=O)CO)O1 [TA, triamcinolone acetonide], the “Scotopic OdB wave A, Amplitude, Mean” value ([1]; 3.2 mg TA/eye SCS, Baseline) is reported as −133.2 μV, the “Scotopic OdB wave A, Time, Mean” value ([1]; 3.2 mg TA/eye SCS, Baseline) is reported as 11.6 ms and the “Scotopic OdB wave B, Amplitude, Mean” value ([1]; 3.2 mg TA/eye SCS, Baseline) is reported as 285.8 μV. For the same compound, the “Scotopic OdB wave B, Time, Mean” value ([1]; 3.2 mg TA/eye SCS, Baseline) was 42.1 ms, the “Scotopic OdB wave A, Amplitude, Mean” value ([1]; 3.2 mg TA/eye SCS, Day 1) was −132 μV and the “Scotopic OdB wave A, Time, Mean” value ([1]; 3.2 mg TA/eye SCS, Day 1) was 11.4 ms. The “Scotopic OdB wave B, Amplitude, Mean” value ([1]; 3.2 mg TA/eye SCS, Day 1) was 276.5 μV, the “Scotopic OdB wave B, Time, Mean” value ([1]; 3.2 mg TA/eye SCS, Day 1) was 47.5 ms and the “Scotopic OdB wave A, Amplitude, Mean” value ([1]; 3.2 mg TA/eye SCS, Week 13) was −132.6 μV. The “Scotopic OdB wave A, Time, Mean” value ([1]; 3.2 mg TA/eye SCS, Week 13) was 11.7 ms, the “Scotopic OdB wave B, Amplitude, Mean” value ([1]; 3.2 mg TA/eye SCS, Week 13) was 299.8 μV and the “Scotopic OdB wave B, Time, Mean” value ([1]; 3.2 mg TA/eye SCS, Week 13) was 51.1 ms. The “Scotopic OdB wave A, Amplitude, Mean” value ([1]; 5.2 mg TA/eye SCS, Baseline) was −137.3 μV, the “Scotopic OdB wave A, Time, Mean” value ([1]; 5.2 mg TA/eye SCS, Baseline) was 11.7 ms and the “Scotopic OdB wave B, Amplitude, Mean” value ([1]; 5.2 mg TA/eye SCS, Baseline) was 286.4 μV. The “Scotopic OdB wave B, Time, Mean” value ([1]; 5.2 mg TA/eye SCS, Baseline) was 42.3 ms, the “Scotopic OdB wave A, Amplitude, Mean” value ([1]; 5.2 mg TA/eye SCS, Day 1) was −130.8 μV and the “Scotopic OdB wave A, Time, Mean” value ([1]; 5.2 mg TA/eye SCS, Day 1) was 11.4 ms. For the same compound, the “Scotopic OdB wave B, Amplitude, Mean” value ([1]; 5.2 mg TA/eye SCS, Day 1) was 265.7 μV, the “Scotopic OdB wave B, Time, Mean” value ([1]; 5.2 mg TA/eye SCS, Day 1) was 43.1 ms and the “Scotopic OdB wave A, Amplitude, Mean” value ([1]; 5.2 mg TA/eye SCS, Week 13) was −117.1 μV. The “Scotopic OdB wave A, Time, Mean” value ([1]; 5.2 mg TA/eye SCS, Week 13) was 12.6 ms, the “Scotopic OdB wave B, Amplitude, Mean” value ([1]; 5.2 mg TA/eye SCS, Week 13) was 264.6 μV and the “Scotopic OdB wave B, Time, Mean” value ([1]; 5.2 mg TA/eye SCS, Week 13) was 45.7 ms. For the same compound, the “effect on a-wave or b-wave implicit time or amplitude (scotopic ERG)” value ([1]; 3.2 or 5.2 mg TA SCS) was “no administration or TA-related effect”, the “inflammation or histologic evidence of toxicity in the SCS” value ([2]; 2.0 mg TA SCS (Group 4)) was “no inflammation or histologic evidence of toxicity in the SCS” and the “histopathology, inner retinal layers and vitreous” value [2, 7] was “moderate infiltrate of neutrophils”. The “histopathology, iris” value [2, 7] was “mild neutrophilic infiltrate”, the “histopathology, anterior segment” value [2, 8] was “normal” and the “histopathology, vitreous” value [2, 8] was “very mild neutrophilic infiltration”. The “mean histologic inflammatory scores in the ocular posterior segment compared with Groups 2, 5 and 6” value ([2]; Group 4: high dose TA SCS) was “significantly lower”, the “histopathology, anterior uvea” value [2, 9] was “mild neurophilic infiltrate” and the “histopathology, vitreous” value [2, 9] was “moderate to severe cellular infiltrate”. For the same compound, the “mean histologic inflammatory scores in the anterior segment compared with Groups 4 and 6” value ([2]; Group 5: low dose TA IVT) was “significantly higher”, the “histopathology, anterior uvea” value [2, 10] was “mild neutrophilic infiltrate” and the “histopathology, vitreous” value [2, 10] was “moderate vitreal infiltrates”. The “mean histologic inflammatory scores compared with vehicle treated eyes (Group 2)” value ([2]; Group 6: high dose IVT TA) was “significantly lower”, the “tissue structural or toxicologic changes on histopathology” value ([2]; all groups, 0.2 or 2.0 mg TA SCS or IVT) was “None of the eyes examined in any group had evidence of substantial tissue structural or toxicologic changes” and the “dose of TA administered to the SCS giving a reduction in inflammation within 3 days, as share of the dose required intravitreally” value ([3]; 0.2 mg SCS vs 2 mg IVT) was 10%. For the same compound, the “inflammatory response (mean Hackett/McDonald ocular scores)” value ([3]; 2 mg TA SCS after LPS, vs vehicle) was “significant reduction; also recorded: significantly reduces”, the “adverse effects, increased IOP, procedural or acute drug toxicity” value ([4]; TA into the SCS, porcine eyes) was “no adverse effects, increased IOP, or evidence of procedural or acute drug toxicity” and the “tolerability of TA delivered to the SCS using microneedles” value ([4]; up to three days after injection in porcine eyes) was “tolerated with an acceptable safety profile”. For the same compound, the “IOP after SCS TA administration” value ([5]; 4 mg TA SCS) was “no significant increase”, the “effects on mortality, body weights, or ocular observations” value ([5]; 4 mg TA SCS or IVT) was “no test article- or administration-related effects” and the “Conjunctival congestion (slight, transient), animals with finding” value [6, 11] was 2. For the same compound, the “Conjunctival discharge (slight, transient), animals with finding” value [6, 11] was 2, the “Corneal Staining (slight, transient), animals with finding” value (from here on “Corneal Staining (slight, transient)”) [6, 11] was 1 and the “Hyperemia (severe, transient), animals with finding” value [6, 11] was 1. For the same compound, the “Lens Defect (anatomic defect unrelated to administration), animals with finding” value [6, 11] was 1, the “Corneal Staining (slight, transient)” value ([6]; 3.2 mg TA/eye SCS, M, 13 weeks post administration) was 1 and the “Conjunctival discharge (slight, transient), animals with finding” value [6, 12] was 1. For the same compound, the “Corneal Staining (slight, transient)” value [6, 12] was 2, the “Conjunctival congestion (slight, transient), animals with finding” value [6, 13] was 1 and the “Corneal Staining (slight, transient)” value [6, 13] was 4. The “adverse effects on clinical observations, body weight, or ophthalmic examinations” value ([6]; 3.2 or 5.2 mg TA SCS) was “no adverse effects”, the “adverse effects related to treatment” value ([6]; 3.2 or 5.2 mg TA SCS) was “no observed adverse effects” and the “findings during slit lamp biomicroscopy and fundus examination” value ([6]; 3.2 or 5.2 mg TA SCS, up to 13 weeks) was “generally mild and transient in nature”.
